Experiments:
[1] = system: N. fowleri ATCC® 30808 trophozoites; assay: Plasma membrane permeability (SYTOX Green); assay type: cell-based, Naegleria fowleri; settings: IC90 of compound, 24 h
Method: (§1) The evaluation of the programmed cell death induction by the meroterpenoids was performed in the ATCC® 30808™ N. fowleri trophozoites. Cells were incubated over 24 h with the IC90 (Table 1) of the compounds at 37 °C. In these experiments, the presence of different metabolic events which are characteristics of the programmed cell death process were evaluated. For this, five different apoptosis events marker kits (the Hoechst 33342/Propidium Iodide, SYTOX™ Green kit, CellROX® Deep Reagent, JC-1 Mitochondrial Membrane Potential Detection Kit, and the Celltiter-Glo® Luminescent Cell Viability Assay) were used according to manufacturer’s instructions. Furthermore, the percentage of stained cells was determined after incubating the treated and non-treated cells with the stains.
The evaluation of the damage in the cell membrane permeability was conducted with the SYTOX Green assay (Life Technologies, Madrid, Spain). Amoebae were incubated with the molecules over 24 h at 37 °C. An EVOS™ M5000 Imaging System (Invitrogen by Thermo Fisher Scientific) was used to observe the trophozoites. Cells with compromised plasma membrane permeability show bright green fluorescence as the stain reaches the nucleus. However, no fluorescence is observed in negative control cells.
In the PCD assays, the number of stained and unstained cells was measured after the performance of the experiments. Regarding the JC-1 Mitochondrial Membrane Potential assays, the ratio between the emitted red fluorescence (at 595 nm) and green fluorescence (at 535 nm) was determined. For each kit, images (×40) with at least 80 cells were selected and analyzed. […] The graphs illustrate the mean value ± SD of three different tests. Finally, a one-way analysis of variance (ANOVA) was assessed to determine the statistical differences between the treated cells and the negative control amoebae, ** p < 0.01; *** p < 0.001; **** p < 0.0001 significant differences.

[2] = system: N. fowleri ATCC® 30808 trophozoites; assay: ATP production (Celltiter-Glo Luminescent Cell Viability Assay); assay type: cell-based, Naegleria fowleri; settings: IC90 of compound, 24 h, 2 × 10^5 cells/mL
Method: as §1, with “stains. On the other hand, the measurement of the ATP production was also assessed in order to confirm the mitochondrial damage in the amoebae. For this, the Celltiter-Glo® Luminescent Cell Viability Assay (Promega Biotech Ibérica, Madrid, Spain) was used. The emitted luminescence, which is proportional to the ATP levels, was measured in an EnSpire® Multimode Plate Reader (Perkin Elmer, Madrid, Spain). Experiments were performed in triplicate. In both treated and untreated cells, the ATP production of a concentration of 2 × 10^5 cells/mL was measured.” for “stains.”

N. fowleri ATCC® 30215 = assay: In vitro activity against N. fowleri trophozoites (alamarBlue), strain ATCC 30215; assay type: cell-based; settings: Naegleria fowleri, ATCC30215, 48 h, mean ± SD
Method: The in vitro activity against N. fowleri trophozoites was evaluated in two different strains from the American Type Culture Collection (LG Promochem, Barcelona, Spain), ATCC® 30808™ and ATCC® 30215™. Cells were axenically grown in 2% Bactocasitone (w/v) medium (Thermo Fisher Scientific, Madrid, Spain) at 37 °C. Moreover, 10% (v/v) of fetal bovine serum (FBS) 0.3 μg/mL of Penicillin G Sodium Salt and 0.5 mg/mL of Streptomycin sulphate (Sigma-Aldrich, Madrid, Spain) were also added to the Bactocasitone medium.
For these assays, a colorimetric assay was conducted using the alamarBlue® reagent. Briefly, N. fowleri trophozoites were seeded in duplicate in a 96-well microtiter plate. After that, different concentrations of the evaluated meroterpenoids diluted in fresh Bactocasitone were added to the wells. The negative control consisted on the trophozoites incubated with the medium alone. Lastly, the alamarBlue® (Life Technologies, Madrid, Spain) reagent was added. Plates were incubated in slight agitation at 37 °C. After 48 h, the fluorescence of the wells was analyzed in an EnSpire Multimode Plate Reader (Perkin Elmer, Madrid, Spain) using a wavelength of excitation of 570 nm and a wavelength of emission of 585 nm.
In order to calculate the IC50 and IC90, a nonlinear regression analysis with a 95% confidence limit was performed.
The in vitro IC50, IC90, and CC50 of the compounds were determined by a non-linear regression with a 95% confidence limit. The SigmaPlot 12.0 software (Systat Sofware Inc., London, UK) was used to perform the data analysis using a paired two-tailed t-test. Values of p < 0.05 were considered significant. The data represent the mean value and the SD of the conducted three different experiments.

[3] = system: N. fowleri ATCC® 30808 trophozoites; assay: ROS production (CellROX Deep Red); assay type: cell-based, Naegleria fowleri; settings: IC90 of compound, 24 h
Method: The evaluation of the programmed cell death induction by the meroterpenoids was performed in the ATCC® 30808™ N. fowleri trophozoites. Cells were incubated over 24 h with the IC90 (Table 1) of the compounds at 37 °C. In these experiments, the presence of different metabolic events which are characteristics of the programmed cell death process were evaluated. For this, five different apoptosis events marker kits (the Hoechst 33342/Propidium Iodide, SYTOX™ Green kit, CellROX® Deep Reagent, JC-1 Mitochondrial Membrane Potential Detection Kit, and the Celltiter-Glo® Luminescent Cell Viability Assay) were used according to manufacturer’s instructions. Furthermore, the percentage of stained cells was determined after incubating the treated and non-treated cells with the stains. The determination of ROS generation was carried out using the CellROX Deep Red fluorescent assay (Thermo Fisher Scientific) following manufacturer’s instructions. Briefly, N. fowleri’s trophozoites were incubated with compounds over 24 h at 37 °C. After that, the CellROX stain was added and incubated with the cells for 30 min in the dark. […] In the PCD assays, the number of stained and unstained cells was measured after the performance of the experiments. Regarding the JC-1 Mitochondrial Membrane Potential assays, the ratio between the emitted red fluorescence (at 595 nm) and green fluorescence (at 535 nm) was determined. For each kit, images (×40) with at least 80 cells were selected and analyzed. […] The graphs illustrate the mean value ± SD of three different tests. Finally, a one-way analysis of variance (ANOVA) was assessed to determine the statistical differences between the treated cells and the negative control amoebae, ** p < 0.01; *** p < 0.001; **** p < 0.0001 significant differences.

| SMILES | Plasma membrane permeability damage (SYTOX green) [1] | Decrease of ATP production compared to untreated cells [2] | IC50 (N. fowleri ATCC® 30215) | IC90 (N. fowleri ATCC® 30215) | ROS production versus negative control (CellROX deep red) [3] |
| --- | --- | --- | --- | --- | --- |
| COc1c(C)cc(O)cc1C/C=C(\C)CC(=O)C/C(C)=C/CC[C@@H](C)C(=O)/C=C/C(C)(C)O [Gongolarone B (1), gongolarone B] | plasma membrane permeability damage | 85.75% | 18.9 ± 0.94 µM | 68.3 ± 1.73 µM | increased the level of ROS production |
| COc1c(C)cc(O)cc1C/C=C(\C)CC(=O)/C=C(/C)CCC[C@@H](C)C(=O)/C=C/C(C)(C)O [6Z-1′Methoxyamentadione (2), 6Z-1′-methoxyamentadione] | plasma membrane permeability damage | 92.49% | 13.3 ± 0.96 µM | 44.2 ± 14.9 µM | increased the level of ROS production |
| COc1c(C)cc(O)cc1C/C=C(\C)CC(=O)/C=C(\C)CCC[C@@H](C)C(=O)/C=C/C(C)(C)O [1′Methoxyamentadione (3), 1′-methoxyamentadione] | plasma membrane permeability damage | 82.62% | 16.5 ± 0.96 µM | 59.7 ± 20.2 µM | increased the level of ROS production |
| COc1c(C)cc(O)cc1C/C=C(\C)CC(=O)/C=C(\C)CCCC(C)=O [Cystomexicone B (6), cystomexicone B] | plasma membrane permeability damage | 65.59% | 58.1 ± 5.85 µM | 260 ± 41.1 µM | increased the level of ROS production |
